The source of these data is patent publication US12325700B2, “Crystal form S4 of the PLK4 inhibitor (1R,2S)-(e)-2-(3-(4-((cis-2,6-dimethylmorpholino)methyl)styryl)-1 h-imidazol-6-yl)-5′-methoxyspiro[cyclopropane-1,3′-indolin]-2′-one fumarate” (UNIVERSITY HEALTH NETWORK, priority 2019, dated 2025).

Each structure is given as a SMILES string. Values after ≈ are worked out from the molar mass of the structure shown. Where a name gives a salt, the structure may show the parent alone. Read-outs that look alike come from different tables or passages of the source.

A short description of series [1]: Equilibrium solubility in bio-relevant media at ambient temperature. The conditions noted are these: for solubility thermodynamic: thermodynamic from solid. The class given is physicochemical. As to the method:
Also, equilibrium solubilities were measured in various bio-relevant media at ambient temperature.

Series [2] is described as follows: Dynamic vapor sorption (DVS) hygroscopicity measurement. The class given is physicochemical. To be noted: 25° C. As for the experimental part: Hygroscopicity measurements were performed by transferring about 10 mg of sample into a DVS instrument and subsequently recording the weight change with respect to the atmospheric humidity at 25° C. using the following parameters: […]

Series [3] is described as follows: Intrinsic dissolution rate at pH 2. The class given is physicochemical.
Series [4] can be described thus: In-vitro dissolution testing of tablets (oral dosage forms). Type of series: physicochemical. From the text: According to the FDA's guidance, in vitro dissolution testing of a drug substance in its oral dosage forms can be properly designed to establish an In Vivo-In Vitro Correlation (IVIVC), i.e., the correlation between an in-vitro property of a dosage form and an in-vivo response. With this guidance, two batches of fumarate containing crystal forms D and S4 were used to prepare tablets, to evaluate any impact on performance of the drug product. Each of the two batches of fumarate and excipients were individually sieved before weighing. The desired weight of each component was then transferred into a shaker mixer and blended. Tableting for the two batches was then performed using a single punch tablet press.
The performance of these tablets was then evaluated using a properly validated dissolution test method.

For series [5] the following is noted: human, in vivo.
Description: Patients were dosed in clinical trials approved by Health Canada and the Research Ethics Board of the Hospital administering the drug. Eight patients were administered the form S4 tablets, six at a dose level of 48 mg and two at a dose level of 160 mg. 64 patients were administered the form D tablets at doses ranging from 3-160 mg.
Blood was collected for analysis prior to dosing and 2, 4, and 6 h after dosing. Briefly, using standard phlebotomy procedures, approximately 6 mL of blood was collected into a K3EDTA blood collection tube and then inverted 8-10 times to mix. The sample was then centrifuged at 1,000 g for 10-15 min at approximately 5° C. The plasma fraction of the blood was removed using a disposable pipette, transferred to a new tube, frozen at −70° C. and subsequently shipped on dry ice for analysis.
Levels of compound (I) were measured in plasma using a method validated in accordance to all applicable USFDA, OECD and MHLW regulations and the USFDA Guidance for Industry: Bioanalytical Method Validation May 2001. […] After evaporation of the extraction solvent, the sample extracts were reconstituted and analyzed by reversed-phase HPLC using a Waters Atlantis dC18. […] The ionized compounds were detected using MS/MS. […] Pharmacokinetic parameters were determined using the Excel add in “PK Functions” […]

`COc1ccc2c(c1)[C@]1(C[C@H]1c1ccc3c(/C=C/c4ccc(CN5C[C@@H](C)O[C@@H](C)C5)cc4)n[nH]c3c1)C(=O)N2` [form D]: the solubility thermodynamic is 2080 µg/mL (≈ 3890 µM) in series [1] (fasted state simulating gastric fluid (FaSSGF), fassgf or other biorelevant, fasted state simulating gastric fluid (FaSSGF), read-out: equilibrium solubility in FaSSGF) and 80 µg/mL (≈ 150 µM) in series [1] (fasted state simulating intestinal fluid (FaSSIF), fassif, fasted state simulating intestinal fluid (FaSSIF), read-out: equilibrium solubility in FaSSIF). Moreover, in series [2], the “weight gain at 80% RH” value stood at 0.56%. Besides, the Intrinsic dissolution rate in series [3] was determined as 440.4 μg/cm^2-min. In addition, the “Dissolution Max” value in series [4] (time 15) stood at 64%; in series [4] (time 30), 86%; in series [4] (time 60 (60 min)) it was 98%. Besides, the “Dissolution Mean” value in series [4] (time 15) was 63%; in series [4] (time 30), 83%; in series [4] (time 60 (60 min)), 94%. Also, the “Dissolution Min” value in series [4] (time 15) worked out at 61%; in series [4] (time 30), 81%; in series [4] (time 60 (60 min)), 92%.

For the compound `COc1ccc2c(c1)[C@]1(C[C@H]1c1ccc3c(/C=C/c4ccc(CN5C[C@@H](C)O[C@@H](C)C5)cc4)n[nH]c3c1)C(=O)N2` [form S4, (1R,2S)-(e)-2-(3-(4-((cis-2,6-dimethylmorpholino)methyl)styryl)-1 h-imidazol-6-yl)-5′-methoxyspiro[cyclopropane-1,3′-indolin]-2′-one fumarate], in series [1] (fasted state simulating gastric fluid (FaSSGF)), the “equilibrium solubility in FaSSGF” value is 2520 µg/mL. The “equilibrium solubility in FaSSIF” value in series [1] (fasted state simulating intestinal fluid (FaSSIF)) was 50 µg/mL. Moreover, the “weight gain at 80% RH” value in series [2] is on record as 0.41%. In addition, the Intrinsic dissolution rate in series [3] is listed as 429.3 μg/cm^2-min. In addition, the “average dose-normalized exposure (AUC0-6 h divided by dose)” value in series [5] is 5.99 ± 2.48 ng·h/mL/mg. Also, the “Dissolution Max” value in series [4] (time 15) is recorded as 77%; in series [4] (time 30), 91%; in series [4] (time 60 (60 min)), 95%. In addition, the “Dissolution Mean” value is 76% in series [4] (time 15), 90% in series [4] (time 30) and 94% in series [4] (time 60 (60 min)). Besides, the “Dissolution Min” value came out at 74% in series [4] (time 15), 89% in series [4] (time 30) and 93% in series [4] (time 60 (60 min)).
